Calls of active or inactive are those of the source. The calls are words filed in the database; no cut-off is given here.
Assays:
[1] = molecular target: Mitogen-activated protein kinase 14 (Homo sapiens) (UniProt Q16539); experiment: Inhibition of p38alpha MAP kinase
[2] = molecular target: Vascular endothelial growth factor receptor 2 (Homo sapiens, UniProt P35968); experiment: Inhibition of VEGFR2 using poly(Glu,Tyr) as substrate assessed as [33P-gamma]-ATP incorporation after 60 mins by microplate scintillation counting
Sequence of Vascular endothelial growth factor receptor 2 (P35968 whole entry): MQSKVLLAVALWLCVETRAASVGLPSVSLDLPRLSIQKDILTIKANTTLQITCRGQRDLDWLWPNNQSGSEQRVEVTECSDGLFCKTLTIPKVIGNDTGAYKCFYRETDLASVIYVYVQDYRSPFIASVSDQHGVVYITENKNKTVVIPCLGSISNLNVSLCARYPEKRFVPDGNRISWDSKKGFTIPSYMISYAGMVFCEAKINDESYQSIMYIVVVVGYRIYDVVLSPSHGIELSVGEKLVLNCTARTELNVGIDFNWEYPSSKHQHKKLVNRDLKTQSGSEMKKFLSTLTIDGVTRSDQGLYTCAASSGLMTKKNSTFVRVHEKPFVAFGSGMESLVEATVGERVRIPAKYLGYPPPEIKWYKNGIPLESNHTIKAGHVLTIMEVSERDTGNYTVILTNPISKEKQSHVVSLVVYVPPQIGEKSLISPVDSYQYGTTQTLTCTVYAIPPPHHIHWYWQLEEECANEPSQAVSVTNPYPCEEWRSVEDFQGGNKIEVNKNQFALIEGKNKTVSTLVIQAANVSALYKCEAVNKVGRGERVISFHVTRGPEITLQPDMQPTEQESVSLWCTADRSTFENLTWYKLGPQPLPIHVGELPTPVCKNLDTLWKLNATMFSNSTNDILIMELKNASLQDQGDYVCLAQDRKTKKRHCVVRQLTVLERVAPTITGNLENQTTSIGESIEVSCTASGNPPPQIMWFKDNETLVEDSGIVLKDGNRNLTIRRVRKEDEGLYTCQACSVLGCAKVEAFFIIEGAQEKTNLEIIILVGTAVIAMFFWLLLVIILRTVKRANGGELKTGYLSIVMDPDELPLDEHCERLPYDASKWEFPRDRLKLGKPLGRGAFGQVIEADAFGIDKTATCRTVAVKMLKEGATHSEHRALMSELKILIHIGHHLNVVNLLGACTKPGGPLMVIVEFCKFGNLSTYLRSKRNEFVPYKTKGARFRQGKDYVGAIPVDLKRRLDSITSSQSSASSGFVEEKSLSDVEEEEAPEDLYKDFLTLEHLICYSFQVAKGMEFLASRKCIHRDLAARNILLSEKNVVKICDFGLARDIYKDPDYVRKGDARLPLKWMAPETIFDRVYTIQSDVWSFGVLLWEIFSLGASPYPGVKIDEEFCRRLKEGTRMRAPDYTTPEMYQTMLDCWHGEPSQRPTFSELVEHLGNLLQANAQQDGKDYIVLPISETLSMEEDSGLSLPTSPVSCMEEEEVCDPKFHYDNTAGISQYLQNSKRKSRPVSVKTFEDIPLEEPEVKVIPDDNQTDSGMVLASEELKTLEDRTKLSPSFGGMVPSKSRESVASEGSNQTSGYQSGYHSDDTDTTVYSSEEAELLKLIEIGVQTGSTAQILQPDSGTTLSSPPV

[3] = molecular target: Serine/threonine-protein kinase B-raf (Homo sapiens, UniProt P15056, V600E); experiment: Inhibition of BRAF V600E mutant using MEK1-KM as substrate assessed as [33P-gamma]-ATP incorporation after 60 mins by microplate scintillation counting
Sequence of Serine/threonine-protein kinase B-raf (Homo sapiens, UniProt P15056, V600E) (P15056 2-766 V600E limits assumed): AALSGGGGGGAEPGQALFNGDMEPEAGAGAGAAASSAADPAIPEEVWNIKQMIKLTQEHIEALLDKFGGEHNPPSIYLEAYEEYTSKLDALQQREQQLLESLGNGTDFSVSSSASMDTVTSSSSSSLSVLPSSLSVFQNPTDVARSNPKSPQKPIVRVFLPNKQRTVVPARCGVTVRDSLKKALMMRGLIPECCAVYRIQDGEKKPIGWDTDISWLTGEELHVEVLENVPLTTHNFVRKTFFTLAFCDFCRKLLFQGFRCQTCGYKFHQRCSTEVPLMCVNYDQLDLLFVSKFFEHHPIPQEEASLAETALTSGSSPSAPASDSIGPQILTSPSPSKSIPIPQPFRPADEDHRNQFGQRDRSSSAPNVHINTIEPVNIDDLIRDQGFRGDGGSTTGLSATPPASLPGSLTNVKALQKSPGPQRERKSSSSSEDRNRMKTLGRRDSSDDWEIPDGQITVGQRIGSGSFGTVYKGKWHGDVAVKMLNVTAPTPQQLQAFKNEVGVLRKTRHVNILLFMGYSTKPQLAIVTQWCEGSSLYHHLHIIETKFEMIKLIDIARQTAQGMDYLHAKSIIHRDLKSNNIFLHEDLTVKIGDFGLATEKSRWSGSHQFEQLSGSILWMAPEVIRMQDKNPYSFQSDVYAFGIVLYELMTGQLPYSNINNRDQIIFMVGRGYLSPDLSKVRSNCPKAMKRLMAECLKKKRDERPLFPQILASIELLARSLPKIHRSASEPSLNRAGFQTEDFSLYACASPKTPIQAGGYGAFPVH

[4] = molecular target: Proto-oncogene tyrosine-protein kinase Src (Homo sapiens, UniProt P12931); experiment: Inhibition of SRC using poly(Glu,Tyr) as substrate assessed as [33P-gamma]-ATP incorporation after 60 mins by microplate scintillation counting
Sequence of Proto-oncogene tyrosine-protein kinase Src (P12931 2-536 limits assumed): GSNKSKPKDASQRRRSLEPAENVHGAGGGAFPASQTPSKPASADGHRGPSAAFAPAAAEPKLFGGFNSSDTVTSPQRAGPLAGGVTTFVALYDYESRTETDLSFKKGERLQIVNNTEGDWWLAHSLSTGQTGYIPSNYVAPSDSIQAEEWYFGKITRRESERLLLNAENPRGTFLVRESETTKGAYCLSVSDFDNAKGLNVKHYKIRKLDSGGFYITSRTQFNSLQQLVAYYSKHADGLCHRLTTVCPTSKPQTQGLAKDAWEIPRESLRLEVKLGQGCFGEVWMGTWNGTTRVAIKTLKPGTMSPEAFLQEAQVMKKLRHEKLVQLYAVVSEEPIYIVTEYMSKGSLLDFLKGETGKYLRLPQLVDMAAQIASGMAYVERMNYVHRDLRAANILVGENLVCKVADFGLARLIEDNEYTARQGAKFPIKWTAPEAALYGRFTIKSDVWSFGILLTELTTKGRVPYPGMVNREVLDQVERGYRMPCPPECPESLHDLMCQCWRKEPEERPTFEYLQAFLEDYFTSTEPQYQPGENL

[5] = molecular target: Serine/threonine-protein kinase B-raf (Homo sapiens, UniProt P15056); experiment: Inhibition of wild type B-Raf using MEK1-KM as substrate assessed as [33P-gamma]-ATP incorporation after 60 mins by microplate scintillation counting
Sequence of Serine/threonine-protein kinase B-raf (Homo sapiens, UniProt P15056) (P15056 whole entry): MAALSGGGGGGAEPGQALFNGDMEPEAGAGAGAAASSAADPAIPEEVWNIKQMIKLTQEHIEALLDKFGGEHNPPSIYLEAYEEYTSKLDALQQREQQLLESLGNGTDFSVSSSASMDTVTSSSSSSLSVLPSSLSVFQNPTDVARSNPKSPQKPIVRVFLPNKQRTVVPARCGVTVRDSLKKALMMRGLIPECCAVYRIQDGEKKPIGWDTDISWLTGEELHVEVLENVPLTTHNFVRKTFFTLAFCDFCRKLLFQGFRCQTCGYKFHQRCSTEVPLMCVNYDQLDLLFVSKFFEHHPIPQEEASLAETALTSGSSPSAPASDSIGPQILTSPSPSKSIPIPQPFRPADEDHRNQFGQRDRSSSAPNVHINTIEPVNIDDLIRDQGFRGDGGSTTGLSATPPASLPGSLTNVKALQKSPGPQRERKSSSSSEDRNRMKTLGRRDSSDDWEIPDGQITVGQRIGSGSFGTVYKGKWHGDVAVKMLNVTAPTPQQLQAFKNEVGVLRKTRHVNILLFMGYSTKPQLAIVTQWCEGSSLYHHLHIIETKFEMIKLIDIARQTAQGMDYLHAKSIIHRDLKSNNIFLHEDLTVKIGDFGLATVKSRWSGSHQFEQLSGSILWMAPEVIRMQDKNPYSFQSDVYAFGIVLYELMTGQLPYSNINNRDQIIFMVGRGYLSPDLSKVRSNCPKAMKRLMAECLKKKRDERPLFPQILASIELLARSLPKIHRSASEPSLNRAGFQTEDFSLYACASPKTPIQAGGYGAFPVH

Sequence of Mitogen-activated protein kinase 14 (Homo sapiens) (Q16539 whole entry): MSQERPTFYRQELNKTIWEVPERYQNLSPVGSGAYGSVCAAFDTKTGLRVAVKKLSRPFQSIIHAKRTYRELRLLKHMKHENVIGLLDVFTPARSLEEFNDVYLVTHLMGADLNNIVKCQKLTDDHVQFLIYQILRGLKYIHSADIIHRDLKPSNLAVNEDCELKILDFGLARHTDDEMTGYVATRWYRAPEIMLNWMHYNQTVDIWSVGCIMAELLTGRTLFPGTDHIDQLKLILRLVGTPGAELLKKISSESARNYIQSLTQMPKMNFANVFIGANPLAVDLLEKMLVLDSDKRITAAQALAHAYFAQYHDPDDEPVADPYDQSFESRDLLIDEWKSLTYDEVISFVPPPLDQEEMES

| SMILES | inhibition [1] | IC50 [2] [nM] | IC50 [3] [nM] | IC50 [4] [nM] | IC50 [5] [nM] |
| --- | --- | --- | --- | --- | --- |
| Fc1ccc(-c2cn(-c3ccc(C(F)(F)F)cc3)nc2-c2ccncc2)cc1 | inactive | – | – | – | – |
| NC(=O)c1c(-c2ccncc2)nn(-c2ccccc2)c1N | inactive | – | – | – | – |
| NC(=O)c1c(-c2ccncc2)nn(-c2c(Cl)cc(Cl)cc2Cl)c1N | inactive | – | > 100000 | – | – |
| Nc1c(-c2ccc(F)cc2)c(-c2ccncc2)nn1-c1ccc(C(F)(F)F)cc1 | inactive | 2400 | 1500 | 6700 | – |
| Nc1c(-c2ccc(F)cc2)c(-c2ccncc2)nn1-c1ccccc1 | inactive | – | – | – | – |
| CCOC(=O)c1c(-c2ccncc2)nn(-c2c(Cl)cc(Cl)cc2Cl)c1N | inactive | > 100000 | > 100000 | > 100000 | – |
| Nc1c(-c2ccc(F)cc2)c(-c2ccncc2)nn1-c1c(Cl)cc(Cl)cc1Cl | inactive | 34 | 592 | 399 | 270 |
| Nc1c(-c2ccc(F)cc2)c(-c2ccncc2)nn1-c1ccc(Cl)cc1 | inactive | 1200 | 800 | 23000 | – |

More lines, main results first:

| inhibition [1] | IC50 [2] [nM] | IC50 [3] [nM] | IC50 [4] [nM] | SMILES | IC50 [5] [nM] |
| --- | --- | --- | --- | --- | --- |
| inactive | 1400 | 1400 | 82000 | Nc1c(-c2ccc(F)cc2)c(-c2ccncc2)nn1-c1ccc([N+](=O)[O-])cc1 | – |
| inactive | 2600 | 890 | 53000 | Cc1ccc(-n2nc(-c3ccncc3)c(-c3ccc(F)cc3)c2N)cc1 | – |
| inactive | – | – | > 100000 | N#Cc1ccc(-n2nc(-c3ccncc3)c(-c3ccc(F)cc3)c2N)cc1 | – |
| inactive | 210 | 2500 | 2000 | Fc1ccc(-c2cn(-c3c(Cl)cc(Cl)cc3Cl)nc2-c2ccncc2)cc1 | – |
| inactive | – | > 100000 | – | Nc1c(C(=O)O)c(-c2ccncc2)nn1-c1c(Cl)cc(Cl)cc1Cl | – |
| inactive | – | > 100000 | > 100000 | Nc1cc(-c2ccncc2)nn1-c1c(Cl)cc(Cl)cc1Cl | – |
| inactive | – | – | – | COc1ccc(-n2nc(-c3ccncc3)c(-c3ccc(F)cc3)c2N)cc1 | – |
